Experimental data as given in US20030187023A1, “Sulfone derivatives, process for their production and use thereof” (priority 2000, published 2003).

Each compound was assayed against human FXa (Homo sapiens, UniProt P00742) (assay: Human activated coagulation factor X (FXa) inhibiting effect). Settings: human FXa (0.3 unit/ml), substrate S-2765, 37° C., tris buffer pH 8.3, absorbance at 405 nm.
Assay type: biochemical
Description: (1) Human Activated Coagulation Factor X (FXa) Inhibiting Effect
Method: A cuvette was charged with 225 μl of 0.05 M tris buffer (pH 8.3) containing 0.145 M sodium chloride and 2 mM calcium chloride, 5 μl of a sample (test compound dissolved in dimethyl sulfoxide) and 10 μl of human FXa (0.3 unit/ml), which were reacted at 37° C. for 10 minutes and then combined with 10 μl of a substrate (3 mM, S-2765) and further reacted at 37° C. for 10 minutes. Then the reaction was terminated by adding 25 μl of 50% aqueous acetic acid, and the change in the absorbance at 405 nm was determined using a spectrophotometer to calculate the concentration at which the FXa effect was inhibited by 50% (IC50).

Sequence of human FXa (P00742 235-488 limits assumed): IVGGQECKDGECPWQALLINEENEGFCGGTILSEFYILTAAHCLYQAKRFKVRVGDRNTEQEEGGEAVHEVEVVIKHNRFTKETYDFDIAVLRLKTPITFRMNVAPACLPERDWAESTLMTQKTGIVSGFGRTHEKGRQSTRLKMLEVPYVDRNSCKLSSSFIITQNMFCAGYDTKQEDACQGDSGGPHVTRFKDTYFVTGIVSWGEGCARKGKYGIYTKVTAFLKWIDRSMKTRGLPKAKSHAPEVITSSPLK
Sequence of human FXa (P00742 41-179 partner limits assumed): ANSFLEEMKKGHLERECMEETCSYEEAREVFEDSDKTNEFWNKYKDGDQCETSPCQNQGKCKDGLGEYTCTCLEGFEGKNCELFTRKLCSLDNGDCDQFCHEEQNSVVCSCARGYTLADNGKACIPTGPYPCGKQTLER

**Q.** How did the IC50 turn out when “4-(6-Bromo-2-naphthyl)sulfonyl-N-methyl-N-[1-(2-methyl-4-pyridyl)-4-piperidyl]propanamide [Example 64]” was run?
**A.** 36 nM

**Q.** With “4-(6-Chloro-2-naphthyl)sulfonyl-N-methyl-N-[1-(2-methyl-4-pyridyl)-4-piperidinyl]propanamide [Example 42]” as the compound, how does the IC50 read?
**A.** 61 nM

**Q.** Which IC50 does the source give for “4-(6-Chloro-2-naphthyl)sulfonyl-N-methyl-N-[1-(4-pyridyl)-4-piperidyl]propanamide [Example 31]” here?
**A.** 50 nM

**Q.** For `CN(CCCS(=O)(=O)c1ccc2cc(Cl)ccc2c1)C(=O)C1CCN(c2ccncc2)CC1` [Example 5, N-[3-(6-Chloro-2-naphthyl)sulfonylpropyl]-N-methyl-1-(4-pyridyl)-4-piperidinecarboxamide], which IC50 is on record?
**A.** 95 nM

**Q.** With `COC(=O)CN(CCCS(=O)(=O)c1ccc2cc(Cl)ccc2c1)C(=O)C1CCN(c2ccncc2)CC1` [Example 14, Methyl 2-[N-[3-(6-chloro-2-naphthyl)sulfonylpropyl]-N-[[1-(4-pyridyl)-4-piperidinyl]carbonyl]amino]acetate] as the compound, how does the IC50 read?
**A.** 60 nM

**Q.** `CCOC(=O)CN(C(=O)CCS(=O)(=O)c1ccc2cc(Cl)ccc2c1)C1CCN(c2ccncc2)CC1` [Example 33, Ethyl 2-[N-[3-(6-chloro-2-naphthyl)sulfonylpropioyl]-N-[1-(4-pyridyl)-4-piperidyl]amino]acetate] was tested. Which IC50 did it give?
**A.** 55 nM

**Q.** How did the IC50 turn out when `CCOC(=O)CCN(C(=O)CCS(=O)(=O)c1ccc2cc(Cl)ccc2c1)C1CCN(c2ccncc2)CC1` [Example 34, Ethyl 3-[N-[3-(6-chloro-2-naphthyl)sulfonylpropioyl]-N-[1-(4-pyridyl)-4-piperidyl]amino]propionate] was run?
**A.** 37 nM

**Q.** Which IC50 does the source give for `CC(=O)NCCN(C(=O)CCS(=O)(=O)c1ccc2cc(Cl)ccc2c1)C1CCN(c2ccnc(C)c2)CC1` [Example 52, N-(2-Acetylaminoethyl)-3-(6-chloro-2-naphthyl)sulfonyl-N-[1-(2-methyl-4-pyridyl)-4-piperidyl]propanamide] here?
**A.** 49 nM

**Q.** For `CC(=O)NCCN(C(=O)CCS(=O)(=O)c1ccc2cc(Cl)ccc2c1)C1CCN(c2ccncc2)CC1` [Example 54, N-(2-Acetylaminoethyl)-3-(6-chloro-2-naphthyl)sulfonyl-N-[1-(4-pyridyl)-4-piperidyl]propanamide], which IC50 is on record?
**A.** 39 nM

**Q.** For `CS(=O)(=O)NCCN(C(=O)CCS(=O)(=O)c1ccc2cc(Cl)ccc2c1)C1CCN(c2ccncc2)CC1` [Example 55, 3-(6-Chloro-2-naphthyl)sulfonyl-N-(2-methylsulfonylaminoethyl)-N-[1-(4-pyridyl)-4-piperidyl]propanamide], which IC50 is on record?
**A.** 40 nM

**Q.** How did the IC50 turn out when `CCOC(=O)CCN(C(=O)CCS(=O)(=O)c1ccc2cc(Cl)ccc2c1)C1CCN(c2ccnc(C)c2)CC1` [Example 67, Ethyl 3-[N-[3-(6-chloro-2-naphthyl)sulfonylpropanoyl]-N-[1-(2-methyl-4-pyridyl)-4-piperidyl]amino]propionate] was run?
**A.** 25 nM

**Q.** For `Cc1cc(N2CCC(N(CCC(=O)N3CC[S+]([O-])CC3)C(=O)CCS(=O)(=O)c3ccc4cc(Cl)ccc4c3)CC2)ccn1` [Example 68, 3-(6-Chloro-2-naphthyl)sulfonyl-N-[1-(2-methyl-4-pydiryl)-4-piperidyl]-N-[3-oxy-3-(1-oxothiomorpholin-4-yl)propyl]propionamide], which IC50 is on record?
**A.** 34 nM

**Q.** `CC(=O)N(C)CCN(C(=O)CCS(=O)(=O)c1ccc2cc(Cl)ccc2c1)C1CCN(c2ccnc(C)c2)CC1` [Example 75, N-[2-(N-Acetyl-N-methylamino)ethyl]-3-(6-chloro-2-naphthyl)sulfonyl-N-[1-(2-methyl-4-pyridyl)-4-piperidyl]propanamide] was tested. Which IC50 did it give?
**A.** 59 nM

**Q.** How did the IC50 turn out when `Cc1cc(N2CCC(N(C)C(=O)CCS(=O)(=O)c3ccc4cc(Cl)ccc4c3)CC2)cc(C)n1` [Example 118, 3-(6-Chloro-2-naphthyl)sulfonyl-N-[1-(2,6-dimethyl-4-pyridyl)-4-piperidyl]-N-propanamide] was run?
**A.** 63 nM

**Q.** `Cc1cc(N2CCC(N(Cc3ccccn3)C(=O)CCS(=O)(=O)c3ccc4cc(Cl)ccc4c3)CC2)ccn1` [Example 129, 3-(6-Chloro-2-naphthyl)sulfonyl-N-[1-(2-methyl-4-pyridyl)-4-piperidyl]-N-(2-pyridyl)methylpropanamide] was tested. Which IC50 did it give?
**A.** 66 nM

**Q.** How did the IC50 turn out when “N-(2-Aminoethyl)-3-(6-chloro-2-naphthyl)sulfonyl-N-[1-(2-methyl-4-pyridyl)-4-piperidyl]propanamide ditrifluoroacetate [Example 53]” was run?
**A.** 95 nM
